Here are results for one molecule from patent publication US20220242872A1, “E3 LIGASE BINDERS AND USES THEREOF” (DANA-FARBER CANCER INSTITUTE, INC., priority 2019, published 2022).

Entries after “also recorded” stand apart in the source; their conditions may differ.

The target in experiment [1] is T1, CRBN (Homo sapiens, UniProt Q96SW2). Description: Assay for CRBN binding in the cell, 24 hours treatment (FIG. 3). In kind it is cell-based. The arrangement: endogenous in cells. As to conditions: 293T WT cells (legend also says Jurkat WT). On the procedure: (§1) The results of an assay for CRBN binding (and degradation of IKZF or actin) upon treatment for 24 hours with exemplary compounds Qi-01-68, JADA53, and positive control lenalidomide (at the indicated concentrations in μM) in 293T WT cells (homo sapiens kidney cell line; wild type) are shown in FIG. 3.

For experiment [2], the target named is T2, IKZF1 (Homo sapiens, UniProt Q13422+Q96SW2). Description: Degradation of IKZF upon 24 hours treatment (FIG. 3). Format: cell-based. The arrangement: endogenous in cells. Conditions: 293T WT cells (legend also says Jurkat WT). On the procedure: as §1
Experiment [3] deals with T3, IKZF3 (Homo sapiens, UniProt Q96SW2+Q9UKT9).
T3 construct: endogenous in cells; host or cells: Jurkat
Description: 24 hour IKZF Western Blot in Jurkat cells (FIG. 5), IKZF3. In kind it is cell-based. On the procedure:
(§2) Exemplary close analogues had low activity against CRBN (FIG. 4). For the IKZF Western Blot, the cell is Jurkat, the exemplary compounds for treatment are JADA3, 32, 53, and lenalidomide, and the time point is 24 hours (FIG. 5).
(§3) Conditions for Western blot:
(§4) Jurkat cells were seeded in 6 well plates, followed by the compound treatment for 24 hours. Primary and secondary antibodies used included anti-IKZF1 at 1:1000 dilution, anti-IKZF2 at 1:1,000 dilution, anti-IKZF3 at 1:1000 dilution, anti-ACTIN at 1:5,000 dilution, IRDye®680 Donkey anti-mouse at 1:5,000 dilution (926-68072, LiCor®, Lot: C61116-05) and IRDye®800 Goat anti-rabbit at 1:5,000 dilution (926-32211, LiCor®, Lot: C70301-05).

In experiment [4] the target is T2, IKZF1. Description: 24 hour IKZF Western Blot in Jurkat cells (FIG. 5), IKZF1. Format: cell-based. The arrangement: endogenous in cells; host or cells: Jurkat. On the procedure: as §2, §3, §4
The target in experiment [5] is T1, CRBN. Description: CRBN Fluorescence Polarization (FP) displacement assay. As to conditions: displacement of Atto565-lenalidomide from DDB1ΔB-CRBN; FIGS. 1, 4, 6A, 7. Format: binding. The arrangement: His6 (N). Here is the method: Conditions for CRBN Fluorescence Polarization (FP) displacement assay: Atto565-conjugated lenalidomide (10 nM) was mixed with increasing concentration of purified his6-DDB1AB-his6—CRBN (10 μM final top concentration, 2-fold, 23-point dilution and DMSO control) in 384-well microplates (Corning, 4514) and incubated for 15 minutes (min) at room temperature (rt). The change in fluorescence polarization was monitored using a PHERAstar® FS microplate reader (BMG Labtech) for 20 min in 120 s cycles. The Atto565-lenalidomide bound fraction was calculated and the Kd was obtained from a fit in GraphPad Prism 7. Compounds in Atto565-Lenalidomide displacement assay were dispensed in a 384-well microplate (Corning®, 4514) using D300e Digital Dispenser (HP) normalized to 2% DMSO into 10 nM Atto565-Leanlidomide, 100 nM DDB1ΔB-CRBN, 50 mM Tris pH 7.5, 200 mM NaCl, 0.1% Pluronic® F-68 solution (Sigma), 0.5 mg/ml BSA (Sigma) containing 2% DMSO (4% DMSO final). The change in fluorescence polarization was monitored using a PHERAstar® FS microplate reader (BMG Labtech) for 20 min in 200 s cycles. IC50 values estimated using variable slope equation in GraphPad Prism 7.

T2 sequence (Q13422 whole entry): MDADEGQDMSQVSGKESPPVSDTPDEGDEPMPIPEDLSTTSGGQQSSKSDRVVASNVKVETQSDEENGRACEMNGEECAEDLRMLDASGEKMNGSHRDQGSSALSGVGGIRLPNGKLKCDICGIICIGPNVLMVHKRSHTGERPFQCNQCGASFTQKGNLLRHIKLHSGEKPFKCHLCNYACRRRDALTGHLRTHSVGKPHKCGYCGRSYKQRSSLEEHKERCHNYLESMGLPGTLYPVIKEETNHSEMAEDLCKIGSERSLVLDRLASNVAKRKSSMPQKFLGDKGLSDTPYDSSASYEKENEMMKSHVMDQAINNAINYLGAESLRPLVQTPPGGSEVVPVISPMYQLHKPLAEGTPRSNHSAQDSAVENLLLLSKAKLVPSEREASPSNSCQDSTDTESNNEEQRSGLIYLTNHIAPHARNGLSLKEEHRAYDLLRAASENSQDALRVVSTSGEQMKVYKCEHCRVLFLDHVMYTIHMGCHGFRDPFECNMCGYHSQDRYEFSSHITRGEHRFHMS
T2 sequence (Q96SW2 whole entry): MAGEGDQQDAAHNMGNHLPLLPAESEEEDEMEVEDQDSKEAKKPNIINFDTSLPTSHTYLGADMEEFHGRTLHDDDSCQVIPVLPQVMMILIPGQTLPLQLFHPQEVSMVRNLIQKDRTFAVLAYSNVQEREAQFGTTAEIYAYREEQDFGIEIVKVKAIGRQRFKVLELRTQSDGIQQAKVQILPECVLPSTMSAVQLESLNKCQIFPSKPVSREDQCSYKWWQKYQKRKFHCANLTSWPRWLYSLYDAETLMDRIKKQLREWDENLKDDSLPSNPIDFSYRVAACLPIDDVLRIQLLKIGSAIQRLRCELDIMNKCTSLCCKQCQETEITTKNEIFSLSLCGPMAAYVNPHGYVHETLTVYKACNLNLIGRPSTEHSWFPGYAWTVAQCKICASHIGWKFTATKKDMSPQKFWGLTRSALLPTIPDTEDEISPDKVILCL
T2 sequence (Q16531 whole entry partner): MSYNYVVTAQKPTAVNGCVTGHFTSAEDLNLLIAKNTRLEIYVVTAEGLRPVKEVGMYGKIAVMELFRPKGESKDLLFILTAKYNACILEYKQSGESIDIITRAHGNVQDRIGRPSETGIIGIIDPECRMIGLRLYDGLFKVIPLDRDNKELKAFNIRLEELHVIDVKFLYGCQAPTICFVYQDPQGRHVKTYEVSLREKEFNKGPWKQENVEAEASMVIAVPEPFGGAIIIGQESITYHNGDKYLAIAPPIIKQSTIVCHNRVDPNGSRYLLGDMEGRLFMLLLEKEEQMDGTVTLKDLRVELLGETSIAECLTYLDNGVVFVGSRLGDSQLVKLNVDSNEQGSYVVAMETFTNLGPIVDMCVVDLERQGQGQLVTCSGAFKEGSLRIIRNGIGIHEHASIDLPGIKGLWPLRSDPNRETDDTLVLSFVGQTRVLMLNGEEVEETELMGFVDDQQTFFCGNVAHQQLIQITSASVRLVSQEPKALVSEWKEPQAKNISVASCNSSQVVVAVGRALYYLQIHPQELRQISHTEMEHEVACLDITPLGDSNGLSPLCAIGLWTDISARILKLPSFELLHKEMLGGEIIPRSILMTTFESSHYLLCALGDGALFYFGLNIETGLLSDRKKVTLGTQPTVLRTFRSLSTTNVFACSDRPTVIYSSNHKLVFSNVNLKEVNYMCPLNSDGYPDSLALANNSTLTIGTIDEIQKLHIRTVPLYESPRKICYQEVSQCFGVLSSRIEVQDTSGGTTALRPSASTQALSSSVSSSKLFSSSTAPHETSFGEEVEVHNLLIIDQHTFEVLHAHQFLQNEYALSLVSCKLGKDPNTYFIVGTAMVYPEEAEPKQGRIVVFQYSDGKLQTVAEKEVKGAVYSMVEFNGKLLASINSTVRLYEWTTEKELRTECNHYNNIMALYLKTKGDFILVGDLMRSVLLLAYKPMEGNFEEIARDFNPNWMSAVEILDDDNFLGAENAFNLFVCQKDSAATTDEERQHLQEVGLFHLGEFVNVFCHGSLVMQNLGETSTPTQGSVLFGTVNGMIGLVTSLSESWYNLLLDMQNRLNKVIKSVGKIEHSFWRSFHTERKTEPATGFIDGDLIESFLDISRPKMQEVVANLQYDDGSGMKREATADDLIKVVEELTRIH
T1 sequence (Q96SW2 whole entry): as the sequence (Q96SW2 whole entry) above
T3 sequence (Q9UKT9 whole entry): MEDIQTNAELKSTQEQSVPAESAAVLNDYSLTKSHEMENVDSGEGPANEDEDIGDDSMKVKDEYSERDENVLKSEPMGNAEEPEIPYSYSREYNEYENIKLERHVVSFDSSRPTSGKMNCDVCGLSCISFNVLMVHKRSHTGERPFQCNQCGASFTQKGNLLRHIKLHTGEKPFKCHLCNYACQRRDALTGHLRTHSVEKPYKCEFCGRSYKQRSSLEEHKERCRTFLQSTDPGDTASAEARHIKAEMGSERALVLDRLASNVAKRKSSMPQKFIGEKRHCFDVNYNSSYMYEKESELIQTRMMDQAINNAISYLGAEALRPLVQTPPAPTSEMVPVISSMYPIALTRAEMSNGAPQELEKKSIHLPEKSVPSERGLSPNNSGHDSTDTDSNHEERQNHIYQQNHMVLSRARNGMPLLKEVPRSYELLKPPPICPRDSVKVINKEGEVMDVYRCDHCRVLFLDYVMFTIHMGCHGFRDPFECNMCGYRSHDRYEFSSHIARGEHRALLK
T3 sequence (Q96SW2 whole entry): as the sequence (Q96SW2 whole entry) above
T3 sequence (Q16531 whole entry partner): as the sequence (Q16531 whole entry partner) above

With `Cc1[nH]c2c(-c3cnn(-c4cc(OCCN)ccn4)c3)cnn2c(=O)c1C(C)C` [JADA53], in experiment [1], the “binding of target CRBN in the cell” value is “good binding”. The “degradation of IKZF / IKZF1 in cell” value in experiment [2] was “can degrade IKZF; also recorded: degraded IKZF”. Besides, the “degradation of IKZF3 in cells (Western Blot)” value in experiment [3] is on record as “degraded”. For the same molecule, the “degradation of IKZF1 in cells (Western Blot)” value in experiment [4] is “degraded”. In addition, in experiment [5], the “CRBN binding activity (FP displacement)” value is “binds CRBN”.
